Measurements from patent US9155740B2, “Compositions and methods for treatment and prevention of hyperuricemia related health consequences” (priority 2004, dated 2015).

Experiments:
Male Sprague-Dawley rats = experiment: Oxonic acid-induced hyperuricemia in rats, serum uric acid, NOx and blood pressure; assay type: in vivo, rat
Experimental: Male Sprague-Dawley rats were housed in standard conditions and fed normal diets. Hyperuricemia was induced with an uricase inhibitor, oxonic acid (OA; 750 mg/kg/day), by gavage, with control rats receiving vehicle. Allopurinol (AP) was used to block hyperuricemia by placing AP in the drinking water (150 mg/L). Rats were divided into four groups: (1) Control, (2) AP only, (3) OA only, and (4) OA+AP. Systolic blood pressure was measured using a tail-cuff sphygmomanometer. The amount of drinking water consumed and changes in body weight were noted. Rats were sacrificed at one and seven days. Serum was analyzed for uric acid concentration and nitrites/nitrates (NOx) by chemiluminescence method. (Prabhakar SS: Inhibition of mesangial iNOS by reduced extracellular pH is associated with uncoupling of NADPH oxidation. Kidney Int 61:2015-2024, 2002). Statistical analysis between subgroups was performed using ANOVA.

fructose-fed rats [1] = experiment: Treatment of fructose-induced hyperuricemia with allopurinol; assay type: in vivo, rat; settings: for body weight: treatment study, p=NS
Text: Treatment of fructose-induced hyperuricemia with allopurinol: Male Sprague-Dawley rats (150-200 g) were housed in standard conditions and fed control (n=7) or 60% fructose diet (Harlan, Madison, Wis., n=14) for 10 weeks. “Control diet” contains 46% carbohydrate, which is mainly composed of starch whereas the fructose diet contained 60% fructose as the carbohydrate. The caloric content of these diets are 3.1 kcal/g and 3.6 kcal/g, respectively. At 4 weeks, blood sample were obtained at 11 am in the morning after 4 h fasting. Half of the fructose-fed rats were administered allopurinol (AP, 150 mg/L in the drinking water) (Sigma, St. Louis, Mo.) for an additional 6 weeks to lower serum uric acid. Fresh drinking water containing allopurinol was replaced every 2 days. Rats were divided into 3 groups: Control; Fructose (Fr); and Fr+AP. At 10 weeks an oral glucose tolerance test was performed, in which rats were fasted overnight (16 hours), and then administered 1.5 g/kg OGTT (50% glucose solution) by gavage. Blood was sampled at 0, 30, 60, 120 min for blood glucose and serum insulin measurement. Rats were then sacrificed.
(§1) Measurements: Systolic blood pressure was assessed as the mean value of 3 consecutive measurements obtained in the morning using a tail-cuff sphygmomanometer (Visitech BP2000, Visitech Systems, Inc., Apex, N.C.). All animals were preconditioned for blood pressure measurements 1 wk before each experiment. Serum uric acid was measured by uricase method. Blood glucose was measured with the ONE TOUCH system (Johnson&Johnson, Milpitas, Calif.). Rat insulin was measured by ELISA (Crystal Chem. Inc., Chicago, Ill.). Insulin sensitivity index was calculated using the formula of Matsuda and DeFronzo (10,000/square root of [fasting glucose×fasting insulin]×[mean glucose×mean insulin during OGTT]), which is highly correlated (r=0.73, p<0.0001) with rate of whole-body glucose disposal during the euglycemic insulin clamp (Matsuda M and DeFronzo R A, Insulin sensitivity indices obtained from oral glucose tolerance testing: comparison with the euglycemic insulin clamp, Diabetes Care 22: 1462-1470, 1999). Serum lipids were measured with an autoanalyzer (VETAce, Alfa Wassermann Inc, West Caldwell, N.J.) or Triglyceride-SL assay kit (Diagnostic chemicals Limited, Charlottetown, PE, Canada).
(§2) Statistical analysis. All values presented are expressed as mean±SD and analyzed by one-way analysis of variance (ANOVA) or by unpaired Student's t test. Significance was defined as p<0.05.

fructose-fed rats [2] = experiment: Prevention of fructose-induced hyperuricemia with allopurinol; assay type: in vivo, rat
Experimental: […] Three groups (control, Fr, and Fr+AP; n=8 each) were designed for this prevention study. Body weight was measured every 2 weeks. Food consumption was measured for 3 days at 8 weeks.
as §1, §2

fructose fed rats = experiment: 60% dextrose vs 60% fructose diet, pair-fed, lowering uric acid with benzbromarone; assay type: in vivo, rat; settings: 4 weeks
Experimental: Comparison between 60% dextrose and 60% fructose on the development of metabolic syndrome and the effect of lowering uric acid with Benzbromarone: Rats were pair-fed with 60% dextrose diet or 60% fructose diet for 4 weeks, which are isocaloric. […] At 4 weeks, total food intake per animal was calculated from the food left over. Total food intake is the subtraction of the left-over food from total administered food (1425 g/rat/28days). In addition to the above two groups, a third group of fructose fed rats were administered BZ. Body weight was measured weekly. At 4 weeks, after 5 h fasting, insulin, triglyceride and uric acid were measured. All protocols were approved by the Animal Care Committee of the University of Florida.
as §1

[3] = system: Rat Aortic Artery (AA) segments; experiment: Acetylcholine-induced vasorelaxation of rat aortic artery segments; settings: uric acid 0-15 mg/dl; acetylcholine 5 μM; U-46619 0.5 μM
Experimental: Vasorelaxation of rat Aortic Artery (AA) segments: Rat AA segments (1-0.5 mm diameter×3-4 mm length) were isolated from the 2- to 3- month-old rats, AA segments were suspended in individual organ chambers (Radnoti Four-Unit Tissue Bath System) with 5 ml in Earl's solution, oxygenated with 95% O2 and 5% CO2 at 37° C. After 1 hr equilibration of resting force of 1.5 g, vascular smooth muscle cell or endothelium integrity in this AA segment was confirmed by monitoring 0.5 μM U-46619 (a thromboxane A2 mimetic, sigma)-mediated AA contraction or acetylcholine (5 μM)-mediated vasodilation, respectively. After washing several times, the segments were incubated with various concentration of uric acid (0-15 mg/dl ) in organ bath chamber for 30 min. Stable construction was induced by 0.5 μM U-46619 for 10 min prior to acetylcholine-induced vasorelaxation. The vascular tensions were continuously monitored with an isometric force transducer (Harvard Apparatus, Holliston, Mass.). To standardize the data, U-46619-induced stable increase in vascular tone was set as 100%.

[4] = system: cultured bovine endothelial cells; settings: cited from earlier work
endothelial function = settings: infusion into forearm vein, immediately after infusion; cited from earlier work
[5] = system: diabetic C57BL6 and eNOS KO mice; experiment: Streptozotocin diabetic C57BL6 and eNOS KO mice with insulin treatment; assay type: in vivo, mouse
Experimental: Experiments were performed following protocol approval by the Animal Care and Use Committee of the University of Florida (IACUC). C57B1/6J mice (C57BL6) and C57BL/6JNos3tm1Unc (eNOS KO mice) (Jackson Laboratory, Bar Harbor, Me.) aged 8 weeks were rendered diabetic with intraperitoneal injections of streptozotocin (STZ) (100 mg/kg/day for 2 consecutive days) freshly dissolved in 0.1M citrate buffer (pH 4.5). Development of diabetes (defined by blood glucose greater than 250 mg/dL) was verified 1 week after the first STZ injection with ONE TOUCH system (Johnson & Johnson, Milpitas, Calif.). For blood sugar control, a single insulin pellet (Linshin Canada Inc, Ontario, Canada) was implanted subcutaneously for 5 months. Blood glucose was monitored every 2 weeks and if the fasting blood glucose was >200 mg/dl, an additional insulin pellet was inserted. Mice were housed in the animal care facility with 12-hour light/dark cycle and allowed free access to food and water. Body weight was recorded monthly. At 3 and 5 months, mice were euthanized for histological analysis. A total of 6 groups were examined with 10 mice for each group at starting points. Non-diabetic (non-DM), diabetic (DM), and diabetic mice (C57BL6 and eNOS KO) with insulin treatment (DMIns) were examined. Systolic blood pressure was assessed as the mean value of 5-10 consecutive measurements obtained in the morning using a tail-cuff sphygmomanometer (Visitech BP2000, Visitech Systems, Inc., Apex, N.C.). BUN was measured by BUN assay (Diagnostic chemicals limited, PE, Canada). Urine in bladder was obtained for urinary albumin excretion at sacrifice. Albumin-to-Creatinine ratio was measured with Albuwell M (Exocell Inc., Philadelphia, Pa.) and Liquid Creatinine Assay (Bioquant, San Diego, Calif.), respectively.
Kidneys were fixed in Fekete's fixative (mixture of ethanol, distilled water, 37% formalin and glacial acetic acid), and embedded in paraffin. 2-μm sections were stained with the periodic acid-Schiff reagent (PAS) or the periodic acid-methenamine silver (PAM) and counterstained with hematoxylin. Indirect immunoperoxidase staining was performed using antibodies to the endothelial antigen, thrombomodulin (TM) (Yuzawa Y, Brentjens J R, Brett J, Caldwell P R, Esposito C, Fukatsu A, Godman G, Stern D, Andres G: Antibody-mediated redistribution and shedding of endothelial antigens in the rabbit. J Immunol 150: 5633-5646, 1993) or CD34 (BD Pharmingen, San Jose, Calif.) (Fina L, Molgaard H V, Robertson D, Bradley N J, Monaghan P, Delia D, Sutherland D R, Baker M A, Greaves M F: Expression of the CD34 gene in vascular endothelial cells. Blood 75: 2417-2426, 1990), and to vascular smooth muscle cells with anti-smooth muscle actin (Abcam, Cambridge, Mass.). To detect endothelial cell proliferation, double immunostaining was performed with an antibody to the […], Ki67 (Abcam, Cambridge, Mass.) and thrombomodulin. Color was developed using DAB as a chromogen. In double staining, Bjoran Purple (BioCare Medical, Concord, Calif.) was used for thrombomodulin.
All quantifications were performed in a blinded fashion. Using coronal sections of the kidney, all glomeruli (100-200 of glomeruli per each animal) were examined. Glomerular mesangial expansion, mesangiolysis, and nodular lesions were evaluated. The percentage of mesangiolysis was calculated as the number of glomeruli with mesangiolysis divided by that of total glomeruli. Arteriolar morphology was assessed by indirect peroxidase immunostaining for alpha-smooth muscle actin. […] Afferent arteriolar wall thickness was measured by computer image analysis. For each arteriole, the outline of the vessel and its internal lumen (excluding the endothelium) were generated by using computer analysis to calculate the total wall area (outline-inline) in a minimum of 12 arterioles. Vessels that were cross-sectioned or not sectioned transversally, providing an asymmetrical wall, were excluded from the present study. […]

[6] = wildtype and eNOS knockout mice

For Oc1ncnc2[nH]ncc12 [Allopurinol, allopurinol], the systolic blood pressure (Male Sprague-Dawley rats; 7 days, OA vs OA/AP, p=NS) was 147±11 mm Hg, the “change in NOx concentration” value (Male Sprague-Dawley rats; rats treated with AP alone) was “did not show a significant change” and the “change in serum UA” value (Male Sprague-Dawley rats; rats treated with AP alone) was “did not show a significant change”. For the same compound, the serum uric acid (fructose-fed rats [1]; AP 150 mg/L drinking water for 6 weeks from week 4 of fructose diet) was “effective at lowering uric acid”, the “insulin sensitivity (index)” value (fructose-fed rats [1]; OGTT at 10 weeks) was “improved insulin sensitivity” and the “hypertriglyceridemia (serum triglycerides)” value (fructose-fed rats [1]; fructose-fed rats) was “abolished”. The “urinary excretion of uric acid” value (fructose-fed rats [1]; fructose-fed rats, 9 weeks) was “prevented the reduced excretion of uric acid”, the fasting hyperinsulinemia (fructose-fed rats [1]; fructose-fed rats, 10 weeks) was “reversed” and the systolic blood pressure (fructose-fed rats [1]; fructose-fed rats, remained higher than control) was “significantly reduced”. The postprandial hyperinsulinemia (fructose-fed rats [1]; oral glucose tolerance test at 10 weeks) was “partially but significantly lower”, the body weight (fructose-fed rats [1]; 10 weeks) was 474 ± 37 g and the “elevation of uric acid by fructose diet” value (fructose-fed rats [2]; allopurinol given simultaneously with fructose diet, over the 6 week period) was “prevented”. The fasting insulin levels (fructose-fed rats [2]; compared to fructose-fed rats, 8 weeks) was “significantly lower”, the development of hypertriglyceridemia (fructose-fed rats [2]; prevention study) was “completely prevented” and the final weight (fructose-fed rats [2]; prevention study, 8 weeks) was 426 ± 26 g.

For O=C(CO)[C@@H](O)[C@H](O)[C@H](O)CO [Fr, fructose], the body weight (fructose-fed rats [1]; 10 weeks) was 522 ± 57 g and the final weight (fructose-fed rats [2]; prevention study, 8 weeks) was 456 ± 24 g.

In the case of O=C(O)c1nc(=O)[nH]c(=O)[nH]1 [OA, oxonic acid], the “reduction of serum NOx in hyperuricemic rats” value (Male Sprague-Dawley rats; at both 1 day and 7 days, vs control) is reported as 40-50%.

For CCc1oc2ccccc2c1C(=O)c1cc(Br)c(O)c(Br)c1 [benzbromarone, Benzbromarone], the hyperinsulinemia (fructose fed rats) was “significantly improved”, the hypertriglyceridemia (fructose fed rats) was “significantly improved” and the hyperuricemia (fructose fed rats) was “significantly improved”.

In the case of O=c1[nH]c(=O)c2[nH]c(=O)[nH]c2[nH]1 [uric acid], the “vasorelaxation of aortic arterial rings in response to acetylcholine” value [3] is given as “dose-dependently blocked”, the NO levels [4] is given as “potently reduce NO levels” and the “endothelial function measured by brachial artery reactivity” value (endothelial function) is given as “does not impair endothelial function”.

With insulin the “development of mesangial expansion” value ([5]; 3 and 5 months) was “blocked”, the development of mesangiolysis ([5]; 3 and 5 months) was “blocked” and the “development of the nodular lesions” value ([5]; 3 and 5 months) was “blocked”. For the same compound, the blood glucose levels ([5]; both wildtype and eNOS knockout mice) was “significant improvements”, the “up-regulation of VEGF mRNA expression” value ([5]; diabetic C57BL6 and eNOS KO mice, whole kidney) was “blocked” and the “increase in inner lumen size of afferent arteriole” value ([5]; diabetic eNOS KO mice) was “blocked”. For the same compound, the “increase in endothelial cell proliferation and number” value ([5]; diabetic mice, renal cortex) was “largely corrected”, the blood pressure ([5]; eNOS knockout mice) was “significantly improved” and the survival ([5]; eNOS knockout mice, 5 months) was “significantly improved”. The development of proteinuria [5, 6] was “prevented”, the “development of renal dysfunction” value [5, 6] was “prevented” and the “development of renal hypertrophy” value [5, 6] was “prevented”.
